Columns and labels:
Assay type in all cases: biochemical
[1] = molecular target: AKT (Homo sapiens, UniProt P31749); experiment: RBC HotSpot kinase assay (33P-ATP, P81 filter-binding), AKT; settings: biochemical kinase inhibition; read-out: AKT IC50
How it was run: (§1)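 IC50 in nM was derived from 10-point, single-replicate titrations. Read-out was radiometric P81 filter binding following a 2 h room-temperature reaction with 33P-ATP, after 20 min compound preincubation.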

[2] = molecular target: T1, LATS2 (Homo sapiens, UniProt Q9NRM7); experiment: RBC HotSpot kinase assay (33P-ATP, P81 filter-binding), LATS2; settings: biochemical kinase inhibition; read-out: LATS2 IC50
T1 sequence (Q9NRM7 1-1088): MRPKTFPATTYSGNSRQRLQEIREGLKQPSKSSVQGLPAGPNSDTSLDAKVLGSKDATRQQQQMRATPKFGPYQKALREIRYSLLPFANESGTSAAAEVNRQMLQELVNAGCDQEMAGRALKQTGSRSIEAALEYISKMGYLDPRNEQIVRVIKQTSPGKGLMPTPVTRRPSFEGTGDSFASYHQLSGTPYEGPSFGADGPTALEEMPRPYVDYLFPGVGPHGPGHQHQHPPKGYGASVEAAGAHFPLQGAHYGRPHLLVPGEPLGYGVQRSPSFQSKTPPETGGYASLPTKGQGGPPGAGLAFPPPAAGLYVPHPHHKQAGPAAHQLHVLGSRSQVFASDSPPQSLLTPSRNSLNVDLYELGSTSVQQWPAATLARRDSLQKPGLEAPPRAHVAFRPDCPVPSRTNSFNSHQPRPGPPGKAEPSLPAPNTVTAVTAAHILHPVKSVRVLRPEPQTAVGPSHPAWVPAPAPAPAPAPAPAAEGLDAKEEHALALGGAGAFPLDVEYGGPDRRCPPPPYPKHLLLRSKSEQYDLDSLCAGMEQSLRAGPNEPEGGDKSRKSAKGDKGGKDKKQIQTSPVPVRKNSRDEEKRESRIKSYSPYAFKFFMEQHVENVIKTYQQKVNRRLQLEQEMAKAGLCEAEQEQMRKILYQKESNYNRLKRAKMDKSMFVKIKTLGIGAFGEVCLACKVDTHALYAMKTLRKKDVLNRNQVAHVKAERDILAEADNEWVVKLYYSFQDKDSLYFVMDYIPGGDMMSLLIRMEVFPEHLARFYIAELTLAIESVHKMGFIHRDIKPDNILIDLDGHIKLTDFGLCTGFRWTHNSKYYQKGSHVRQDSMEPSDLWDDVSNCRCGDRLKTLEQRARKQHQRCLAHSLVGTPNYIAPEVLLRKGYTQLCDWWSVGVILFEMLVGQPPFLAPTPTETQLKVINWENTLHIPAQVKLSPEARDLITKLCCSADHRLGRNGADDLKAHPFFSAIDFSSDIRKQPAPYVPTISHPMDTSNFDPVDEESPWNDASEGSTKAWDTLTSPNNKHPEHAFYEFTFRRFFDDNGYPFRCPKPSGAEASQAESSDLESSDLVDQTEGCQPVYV
How it was run: as §1

[3] = molecular target: T2, LATS1 (Homo sapiens, UniProt O95835); experiment: RBC HotSpot kinase assay (33P-ATP, P81 filter-binding), LATS1; settings: biochemical kinase inhibition; read-out: LATS1 IC50
T2 sequence (O95835 1-1130): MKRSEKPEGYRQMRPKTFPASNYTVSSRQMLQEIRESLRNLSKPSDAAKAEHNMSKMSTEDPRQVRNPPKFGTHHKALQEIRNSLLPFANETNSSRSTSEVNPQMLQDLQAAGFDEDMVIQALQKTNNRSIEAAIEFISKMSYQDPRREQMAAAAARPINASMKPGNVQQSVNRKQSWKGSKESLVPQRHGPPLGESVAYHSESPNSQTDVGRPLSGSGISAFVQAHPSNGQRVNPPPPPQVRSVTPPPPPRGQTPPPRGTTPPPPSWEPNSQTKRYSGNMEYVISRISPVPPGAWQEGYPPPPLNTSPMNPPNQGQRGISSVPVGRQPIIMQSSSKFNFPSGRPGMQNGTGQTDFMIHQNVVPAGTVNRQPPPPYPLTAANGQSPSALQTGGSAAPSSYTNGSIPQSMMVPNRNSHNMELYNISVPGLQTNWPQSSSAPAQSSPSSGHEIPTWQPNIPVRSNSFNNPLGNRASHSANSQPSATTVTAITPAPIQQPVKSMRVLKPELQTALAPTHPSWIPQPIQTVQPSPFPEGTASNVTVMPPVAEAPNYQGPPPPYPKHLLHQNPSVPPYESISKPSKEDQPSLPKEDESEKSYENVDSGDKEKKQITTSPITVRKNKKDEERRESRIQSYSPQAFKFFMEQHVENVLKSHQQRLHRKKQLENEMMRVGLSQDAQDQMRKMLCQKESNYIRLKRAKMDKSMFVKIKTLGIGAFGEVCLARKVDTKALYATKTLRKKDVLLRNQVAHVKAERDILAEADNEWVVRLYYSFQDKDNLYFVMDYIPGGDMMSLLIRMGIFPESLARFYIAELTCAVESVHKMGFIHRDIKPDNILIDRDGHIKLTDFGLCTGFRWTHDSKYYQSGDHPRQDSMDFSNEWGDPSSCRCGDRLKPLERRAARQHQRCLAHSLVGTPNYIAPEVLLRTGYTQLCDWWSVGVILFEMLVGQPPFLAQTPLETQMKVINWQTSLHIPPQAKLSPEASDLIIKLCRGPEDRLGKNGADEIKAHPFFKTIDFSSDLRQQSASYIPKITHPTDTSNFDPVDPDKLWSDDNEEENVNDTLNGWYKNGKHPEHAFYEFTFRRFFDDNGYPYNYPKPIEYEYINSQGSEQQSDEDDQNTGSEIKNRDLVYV
How it was run: as §1

AKT, sequence (P31749 whole entry): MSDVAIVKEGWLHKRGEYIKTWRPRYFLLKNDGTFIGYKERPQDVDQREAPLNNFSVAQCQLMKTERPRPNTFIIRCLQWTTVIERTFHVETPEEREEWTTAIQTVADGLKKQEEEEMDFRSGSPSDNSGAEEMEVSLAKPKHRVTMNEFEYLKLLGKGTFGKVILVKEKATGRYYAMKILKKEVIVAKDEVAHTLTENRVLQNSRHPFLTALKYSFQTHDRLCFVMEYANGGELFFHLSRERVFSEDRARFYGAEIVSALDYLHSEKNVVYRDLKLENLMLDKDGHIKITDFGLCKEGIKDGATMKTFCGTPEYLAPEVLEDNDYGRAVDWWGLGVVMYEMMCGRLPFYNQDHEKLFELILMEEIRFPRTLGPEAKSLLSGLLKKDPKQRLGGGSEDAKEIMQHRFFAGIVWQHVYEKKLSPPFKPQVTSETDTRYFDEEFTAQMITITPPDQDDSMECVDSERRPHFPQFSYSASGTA

Row | IC50 [1] [nM] | IC50 [2] [nM] | IC50 [3] [nM] | SMILES
1 | 1220 | 7 | 7 | Cc1cc(-c2ccnc3[nH]cc(C#N)c23)cc(F)c1[C@@]1(O)[C@H](C)CN(C(=O)C(N)C(F)F)C[C@@H]1C (stereo partly drawn) [Compound 2019, 4-(4-((3S,4s,5R)-1-(2-amino-3,3-difluoropropanoyl)-4-hydroxy-3,5-dimethylpiperidin-4-yl)-3-fluoro-5-methylphenyl)-1H-pyrrolo[2,3-b]pyridine-3-carbonitrile]
2 | 223 | 3.4 | 5.1 | Cc1cc(-c2ccnc3[nH]cc(C#N)c23)cc(F)c1[C@@]1(O)[C@H](C)CN(C(=O)[C@@H](CO)N(C)C)C[C@@H]1C [Compound 2021, 4-(4-((3S,4S,5R)-1-(dimethyl-D-seryl)-4-hydroxy-3,5-dimethylpiperidin-4-yl)-3-fluoro-5-methylphenyl)-1H-pyrrolo[2,3-b]pyridine-3-carbonitrile]
3 | 251 | 3 | 5.3 | Cc1cc(-c2ccnc3[nH]cc(C#N)c23)ccc1[C@@]1(O)[C@H](C)CN(C(=O)[C@@H](CO)N(C)C)C[C@@H]1C [Compound 2022, 4-(4-((3S,4S,5R)-1-(dimethyl-D-seryl)-4-hydroxy-3,5-dimethylpiperidin-4-yl)-3-methylphenyl)-1H-pyrrolo[2,3-b]pyridine-3-carbonitrile]
